Results published in PubChem BioAssay (NCI).
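Compound exposure: 48 hours, 5 concentrations, 96-well plates. GI50 marks 50% less growth. TGI: concentration producing complete growth inhibition.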

Assays:
Test in all cases: NCI tumour cell line growth inhibition, 48 h
786-0 renal = system: 786-0 renal
A498 renal = system: A498 renal
A549 NSCLC = system: A549 NSCLC
ACHN renal = system: ACHN renal
BT-549 breast = system: BT-549 breast
CAKI-1 renal = system: CAKI-1 renal
CCRF-CEM leukemia = system: CCRF-CEM leukemia
COLO 205 colon = system: COLO 205 colon
DU-145 prostate = system: DU-145 prostate
EKVX NSCLC = system: EKVX NSCLC
HCC-2998 colon = system: HCC-2998 colon
HCT-116 colon = system: HCT-116 colon
HCT-15 colon = system: HCT-15 colon
HL-60(TB) leukemia = system: HL-60(TB) leukemia
HOP-62 NSCLC = system: HOP-62 NSCLC
HOP-92 NSCLC = system: HOP-92 NSCLC
HS 578T breast = system: HS 578T breast
HT29 colon = system: HT29 colon
IGROV1 ovarian = system: IGROV1 ovarian
KM12 colon = system: KM12 colon
LOX IMVI melanoma = system: LOX IMVI melanoma
M14 melanoma = system: M14 melanoma
MALME-3M melanoma = system: MALME-3M melanoma
MCF7 breast = system: MCF7 breast
MDA-MB-231 breast = system: MDA-MB-231 breast
MDA-MB-435 = system: MDA-MB-435
MOLT-4 leukemia = system: MOLT-4 leukemia
NCI-H226 lung = system: NCI-H226 lung
NCI-H23 lung = system: NCI-H23 lung
NCI-H460 lung = system: NCI-H460 lung
NCI-H522 lung = system: NCI-H522 lung
NCI/ADR-RES ovarian = system: NCI/ADR-RES ovarian
OVCAR-3 ovarian = system: OVCAR-3 ovarian
OVCAR-4 ovarian = system: OVCAR-4 ovarian
OVCAR-5 ovarian = system: OVCAR-5 ovarian
OVCAR-8 ovarian = system: OVCAR-8 ovarian
PC-3 prostate = system: PC-3 prostate
RPMI-8226 leukemia = system: RPMI-8226 leukemia
RXF 393 renal = system: RXF 393 renal
SF-268 CNS = system: SF-268 CNS
SF-295 CNS = system: SF-295 CNS
SF-539 CNS = system: SF-539 CNS
SK-MEL-2 melanoma = system: SK-MEL-2 melanoma
SK-MEL-28 melanoma = system: SK-MEL-28 melanoma
SK-MEL-5 melanoma = system: SK-MEL-5 melanoma
SK-OV-3 ovarian = system: SK-OV-3 ovarian
SN12C renal = system: SN12C renal
SNB-19 CNS = system: SNB-19 CNS
SNB-75 CNS = system: SNB-75 CNS
SW-620 colon = system: SW-620 colon
T-47D breast = system: T-47D breast
TK-10 renal = system: TK-10 renal
U251 CNS = system: U251 CNS
UACC-257 melanoma = system: UACC-257 melanoma
UACC-62 melanoma = system: UACC-62 melanoma
UO-31 renal = system: UO-31 renal

CC1(C)CCC2(CC1)N[C@@H](C(=O)N[C@@H]1CC[C@@H](C(N)=O)OC1)[C@H](c1ccnc(Cl)c1F)[C@]21C(=O)Nc2cc(Cl)ccc21
GI50 (786-0 renal): 2.77 µM | TGI (786-0 renal): 8.51 µM | GI50 (A498 renal): 0.111 µM | TGI (A498 renal): 3.95 µM | GI50 (A549 NSCLC): 0.26 µM | TGI (A549 NSCLC): 13.1 µM | GI50 (ACHN renal): 0.139 µM | TGI (ACHN renal): 2.28 µM | GI50 (BT-549 breast): 2.45 µM | TGI (BT-549 breast): 7.52 µM | GI50 (CAKI-1 renal): 0.0622 µM | TGI (CAKI-1 renal): 4.15 µM | GI50 (CCRF-CEM leukemia): 3.01 µM | TGI (CCRF-CEM leukemia): 13.3 µM | GI50 (COLO 205 colon): 2.11 µM | TGI (COLO 205 colon): 5.39 µM | GI50 (DU-145 prostate): 3.94 µM | TGI (DU-145 prostate): 16.1 µM | GI50 (EKVX NSCLC): 2.38 µM | TGI (EKVX NSCLC): 7.6 µM | GI50 (HCC-2998 colon): 1.7 µM | TGI (HCC-2998 colon): 3.21 µM | GI50 (HCT-116 colon): 0.07 µM | TGI (HCT-116 colon): 6.96 µM | GI50 (HCT-15 colon): 2.88 µM | TGI (HCT-15 colon): 10.1 µM | GI50 (HL-60(TB) leukemia): 2.36 µM | TGI (HL-60(TB) leukemia): 5.59 µM | GI50 (HOP-62 NSCLC): 2.31 µM | TGI (HOP-62 NSCLC): 7.83 µM | GI50 (HOP-92 NSCLC): 1.78 µM | TGI (HOP-92 NSCLC): 4.79 µM | GI50 (HS 578T breast): 2.33 µM | TGI (HS 578T breast): 10.4 µM | GI50 (HT29 colon): 2.22 µM | TGI (HT29 colon): 6.01 µM | GI50 (IGROV1 ovarian): 0.793 µM | TGI (IGROV1 ovarian): 6.13 µM | GI50 (KM12 colon): 2.39 µM | TGI (KM12 colon): 6.23 µM | GI50 (LOX IMVI melanoma): 0.124 µM | TGI (LOX IMVI melanoma): 2 µM | GI50 (M14 melanoma): 2.14 µM | TGI (M14 melanoma): 5.63 µM | GI50 (MALME-3M melanoma): 0.0482 µM | TGI (MALME-3M melanoma): 2.03 µM | GI50 (MCF7 breast): 0.037 µM | TGI (MCF7 breast): 2.28 µM | GI50 (MDA-MB-231 breast): 1.92 µM | TGI (MDA-MB-231 breast): 3.98 µM | GI50 (MDA-MB-435): 2.44 µM | TGI (MDA-MB-435): 6.22 µM | GI50 (MOLT-4 leukemia): 0.107 µM | TGI (MOLT-4 leukemia): 3.13 µM | GI50 (NCI-H226 lung): 0.0935 µM | TGI (NCI-H226 lung): 0.804 µM | GI50 (NCI-H23 lung): 3.73 µM | TGI (NCI-H23 lung): 15.4 µM | GI50 (NCI-H460 lung): 0.179 µM | TGI (NCI-H460 lung): 2.05 µM | GI50 (NCI-H522 lung): 2.01 µM | TGI (NCI-H522 lung): 4.46 µM | GI50 (NCI/ADR-RES ovarian): 16.3 µM | TGI (NCI/ADR-RES ovarian): 45.5 µM | GI50 (OVCAR-3 ovarian): 2.75 µM | TGI (OVCAR-3 ovarian): 8.2 µM | GI50 (OVCAR-4 ovarian): 3.19 µM | TGI (OVCAR-4 ovarian): 14.1 µM | GI50 (OVCAR-5 ovarian): 2.15 µM | TGI (OVCAR-5 ovarian): 5.9 µM | GI50 (OVCAR-8 ovarian): 3.92 µM | TGI (OVCAR-8 ovarian): 27.7 µM | GI50 (PC-3 prostate): 2.26 µM | TGI (PC-3 prostate): 6.25 µM | GI50 (RPMI-8226 leukemia): 2.12 µM | TGI (RPMI-8226 leukemia): 5.57 µM | GI50 (RXF 393 renal): 2.26 µM | TGI (RXF 393 renal): 5.67 µM | GI50 (SF-268 CNS): 3.5 µM | TGI (SF-268 CNS): 19.1 µM | GI50 (SF-295 CNS): 2.14 µM | TGI (SF-295 CNS): 5.04 µM | GI50 (SF-539 CNS): 1.93 µM | TGI (SF-539 CNS): 4.66 µM | GI50 (SK-MEL-2 melanoma): 2.16 µM | TGI (SK-MEL-2 melanoma): 5.02 µM | GI50 (SK-MEL-28 melanoma): 1.95 µM | TGI (SK-MEL-28 melanoma): 4.06 µM | GI50 (SK-MEL-5 melanoma): 0.743 µM | TGI (SK-MEL-5 melanoma): 2.17 µM | GI50 (SK-OV-3 ovarian): 3 µM | TGI (SK-OV-3 ovarian): 9.27 µM | GI50 (SN12C renal): 3.13 µM | TGI (SN12C renal): 12 µM | GI50 (SNB-19 CNS): 3.38 µM | TGI (SNB-19 CNS): 15.2 µM | GI50 (SNB-75 CNS): 2.17 µM | TGI (SNB-75 CNS): 9.38 µM | GI50 (SW-620 colon): 3.81 µM | TGI (SW-620 colon): 23.1 µM | GI50 (T-47D breast): 2.58 µM | TGI (T-47D breast): 7.85 µM | GI50 (TK-10 renal): 3.13 µM | TGI (TK-10 renal): 15.7 µM | GI50 (U251 CNS): 2.8 µM | TGI (U251 CNS): 9.64 µM | GI50 (UACC-257 melanoma): 0.19 µM | TGI (UACC-257 melanoma): 2.53 µM | GI50 (UACC-62 melanoma): 0.0556 µM | TGI (UACC-62 melanoma): 2.05 µM | GI50 (UO-31 renal): 0.261 µM | TGI (UO-31 renal): 3.04 µM
